“And” between values parts separate entries of the source, which are not always exact repeats. Identical values can stand only once.
Columns and labels:
full-length BTK protein = target: T1, full-length BTK protein (Homo sapiens, UniProt Q06187); assay: BTK binding assay (Kd, Eurofins DiscoverX)
T1 construct: Kd was measured using the full-length BTK protein by Eurofins DiscoverX; T7 phage fusion or DNA tag for qPCR (generic vendor protocol); purchased Eurofins DiscoverX
Procedure, shortened: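 Competition binding of DNA-tagged full-length BTK (T7 phage or HEK-293 produced) against immobilised ligand on blocked beads, with the remaining kinase quantified by qPCR. An 11-point 3-fold compound dilution was tested at 1% final DMSO. Kd came from a Hill fit with slope fixed at −1.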

Mino = assay: IC50 in MCL cell lines (Supplementary Table 2), Mino; details: for Cell Viability (%): Mino cells, replicate wells
Rec-1 = assay: IC50 in MCL cell lines (Supplementary Table 2), Rec-1; details: for Cell Viability (%): Rec-1 cells, replicate wells
NanoLuc-CRBN fusion = target: T2, NanoLuc-CRBN fusion (Homo sapiens, UniProt Q96SW2); assay: NanoBRET CRBN in-cell target engagement assay; type: cell-based; details: for NanoBRET(%): Figure 3b
T2 construct: host or cells: HEK 293T/17
Procedure, shortened: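 Live cells expressing NanoLuc-CRBN with tracer and compound were incubated 2 h, then given Nano-Glo substrate plus extracellular NanoLuc inhibitor for 3 min at room temperature.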

[1] = target: truncated Cereblon protein (Homo sapiens, UniProt Q96SW2); assay: CRBN binding assay (fluorescence quenching); details: for Fluorescence Intensity: Supplementary Figure 11, replicates
Procedure, shortened: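 Binding to truncated CRBN measured by fluorescence quenching at 100 nM final compound. Buffer-only background subtracted; Kd obtained by fitting intensity to I=I0−If×Kd/P0+Kd+If.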

BTK = BTK (Homo sapiens, UniProt Q06187); assay: In vitro BTK kinase assay (PhosphoSens); type: biochemical; parameters: purchased SignalChem B10-10H-10
Sequence of BTK (Q06187 whole entry): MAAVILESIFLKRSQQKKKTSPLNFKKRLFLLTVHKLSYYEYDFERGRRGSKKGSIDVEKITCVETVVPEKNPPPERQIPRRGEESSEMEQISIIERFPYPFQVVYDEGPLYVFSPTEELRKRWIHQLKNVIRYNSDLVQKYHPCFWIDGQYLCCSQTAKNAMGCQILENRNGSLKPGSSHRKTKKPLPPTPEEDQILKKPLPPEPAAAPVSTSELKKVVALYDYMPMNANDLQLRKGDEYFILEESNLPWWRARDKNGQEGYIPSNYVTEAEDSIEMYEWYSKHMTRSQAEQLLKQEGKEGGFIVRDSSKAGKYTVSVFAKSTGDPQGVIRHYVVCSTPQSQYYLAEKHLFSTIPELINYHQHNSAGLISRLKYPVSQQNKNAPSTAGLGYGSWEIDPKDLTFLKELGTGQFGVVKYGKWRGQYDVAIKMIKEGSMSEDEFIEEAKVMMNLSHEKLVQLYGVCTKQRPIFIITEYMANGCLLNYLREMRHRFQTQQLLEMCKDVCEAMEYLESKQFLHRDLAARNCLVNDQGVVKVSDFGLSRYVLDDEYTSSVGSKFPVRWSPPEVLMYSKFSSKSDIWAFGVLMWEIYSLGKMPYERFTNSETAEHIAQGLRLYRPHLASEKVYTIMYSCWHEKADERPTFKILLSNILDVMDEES

Sequence of truncated Cereblon protein (Q96SW2 318-426): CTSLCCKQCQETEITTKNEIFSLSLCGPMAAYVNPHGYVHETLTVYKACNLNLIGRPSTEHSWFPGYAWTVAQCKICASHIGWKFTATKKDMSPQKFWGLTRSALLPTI
T1 sequence (Q06187 whole entry, the tested form may be a part): as the sequence (Q06187 whole entry) above
T2 sequence (Q96SW2 whole entry, the tested form may be a part): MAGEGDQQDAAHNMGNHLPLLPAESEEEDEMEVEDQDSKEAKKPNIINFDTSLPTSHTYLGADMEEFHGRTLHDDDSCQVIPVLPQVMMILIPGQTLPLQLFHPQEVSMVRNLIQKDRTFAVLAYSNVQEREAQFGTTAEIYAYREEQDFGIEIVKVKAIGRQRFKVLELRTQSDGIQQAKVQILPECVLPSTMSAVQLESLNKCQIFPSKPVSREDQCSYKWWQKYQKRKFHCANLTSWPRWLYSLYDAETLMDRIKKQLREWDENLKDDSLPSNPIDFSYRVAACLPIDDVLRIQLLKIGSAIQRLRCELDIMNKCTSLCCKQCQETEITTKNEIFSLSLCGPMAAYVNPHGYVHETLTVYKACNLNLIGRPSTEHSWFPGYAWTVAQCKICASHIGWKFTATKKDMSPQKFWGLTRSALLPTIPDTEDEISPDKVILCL
T2 sequence (Q16531 whole entry partner, the tested form may be a part): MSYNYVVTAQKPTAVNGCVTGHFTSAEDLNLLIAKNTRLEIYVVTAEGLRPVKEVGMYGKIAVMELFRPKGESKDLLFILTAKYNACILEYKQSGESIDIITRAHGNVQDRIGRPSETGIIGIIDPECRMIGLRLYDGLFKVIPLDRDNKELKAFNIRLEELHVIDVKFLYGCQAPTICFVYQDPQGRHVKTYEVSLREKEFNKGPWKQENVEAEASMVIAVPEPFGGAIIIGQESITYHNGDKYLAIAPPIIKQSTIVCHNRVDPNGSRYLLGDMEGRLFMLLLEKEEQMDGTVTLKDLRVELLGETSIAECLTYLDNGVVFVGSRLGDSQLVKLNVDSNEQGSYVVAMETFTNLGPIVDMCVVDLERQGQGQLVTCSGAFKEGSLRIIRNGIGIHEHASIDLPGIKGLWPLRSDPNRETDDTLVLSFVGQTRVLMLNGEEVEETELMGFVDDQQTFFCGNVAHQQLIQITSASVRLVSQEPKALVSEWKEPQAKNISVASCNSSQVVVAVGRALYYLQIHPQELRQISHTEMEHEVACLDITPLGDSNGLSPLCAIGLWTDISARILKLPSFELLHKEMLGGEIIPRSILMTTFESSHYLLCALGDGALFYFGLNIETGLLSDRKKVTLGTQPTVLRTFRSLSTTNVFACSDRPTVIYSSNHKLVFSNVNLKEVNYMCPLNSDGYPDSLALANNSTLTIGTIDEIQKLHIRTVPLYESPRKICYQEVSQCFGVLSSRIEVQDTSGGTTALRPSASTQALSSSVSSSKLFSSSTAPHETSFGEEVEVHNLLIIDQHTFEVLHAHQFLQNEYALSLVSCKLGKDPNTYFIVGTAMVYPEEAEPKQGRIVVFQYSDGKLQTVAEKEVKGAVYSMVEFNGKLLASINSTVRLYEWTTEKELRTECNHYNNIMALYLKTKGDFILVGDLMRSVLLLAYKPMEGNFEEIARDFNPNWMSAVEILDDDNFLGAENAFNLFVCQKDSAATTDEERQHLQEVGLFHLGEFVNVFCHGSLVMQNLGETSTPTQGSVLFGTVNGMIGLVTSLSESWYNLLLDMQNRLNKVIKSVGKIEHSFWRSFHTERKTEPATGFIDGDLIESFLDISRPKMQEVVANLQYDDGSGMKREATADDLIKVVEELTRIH

CN(CCCNC(=O)CNc1cccc2c1C(=O)N(C1CCC(=O)NC1=O)C2=O)C(C)(C)C=C(C#N)C(=O)N1CCC[C@@H](n2nc(-c3ccc(Oc4ccccc4)cc3)c3c(N)ncnc32)C1 (stereo partly drawn) [RC-1]
Signal (full-length BTK protein; BTK_+DTT, compound concentration 0.00491 nM): 2.20E-05 and 2.17E-05 | Signal (full-length BTK protein; BTK_+DTT, compound concentration 0.0147 nM): 1.92E-05 and 1.81E-05 | Signal (full-length BTK protein; BTK_+DTT, compound concentration 0.0442 nM): 2.14E-05 and 1.73E-05 | Signal (full-length BTK protein; BTK_+DTT, compound concentration 0.133 nM): 2.05E-05 and 2.18E-05 | Signal (full-length BTK protein; BTK_+DTT, compound concentration 0.398 nM): 2.41E-05 and 2.16E-05 | Signal (full-length BTK protein; BTK_+DTT, compound concentration 1.19 nM): 1.65E-05 and 1.58E-05 | Signal (full-length BTK protein; BTK_+DTT, compound concentration 3.58 nM): 1.59E-05 and 1.74E-05 | Signal (full-length BTK protein; BTK_+DTT, compound concentration 10.7 nM): 1.27E-05 and 1.43E-05 | Signal (full-length BTK protein; BTK_+DTT, compound concentration 32.2 nM): 8.15E-06 and 9.04E-06 | Signal (full-length BTK protein; BTK_+DTT, compound concentration 96.7 nM): 2.36E-06 and 3.19E-06 | Signal (full-length BTK protein; BTK_+DTT, compound concentration 290 nM): 6.97E-07 and 7.79E-07 | Signal (full-length BTK protein; BTK_-DTT, compound concentration 0.0152 nM): 1.51E-05 and 1.47E-05 | Signal (full-length BTK protein; BTK_-DTT, compound concentration 0.0457 nM): 1.49E-05 and 1.51E-05 | Signal (full-length BTK protein; BTK_-DTT, compound concentration 0.137 nM): 1.65E-05 and 2.03E-05 | Signal (full-length BTK protein; BTK_-DTT, compound concentration 0.412 nM): 1.54E-05 and 1.43E-05 | Signal (full-length BTK protein; BTK_-DTT, compound concentration 1.23 nM): 1.12E-05 and 1.17E-05 | Signal (full-length BTK protein; BTK_-DTT, compound concentration 3.7 nM): 1.02E-05 and 1.17E-05 | Signal (full-length BTK protein; BTK_-DTT, compound concentration 11.1 nM): 6.96E-06 and 6.70E-06 | Signal (full-length BTK protein; BTK_-DTT, compound concentration 33.3 nM): 2.36E-06 and 3.11E-06 | Signal (full-length BTK protein; BTK_-DTT, compound concentration 100 nM): 5.28E-07 and 7.20E-07 | Signal (full-length BTK protein; BTK_-DTT, compound concentration 300 nM): 2.64E-07 and 1.61E-07 | Kd (full-length BTK protein; full-length BTK, absence of DTT in the buffer, duplicates): 6.4 nM | Cell Viability (%) (Mino; 1.25E-06 M): 39.6721% and 39.1711% and 38.89% | Cell Viability (%) (Mino; 1.56E-07 M): 67.6678% and 68.2351% and 62.6329% | Cell Viability (%) (Mino; 2.50E-06 M): 36.14% and 35.6851% and 33.7887% | Cell Viability (%) (Mino; 3.13E-07 M): 53.7594% and 53.6077% and 49.7111% | Cell Viability (%) (Mino; 5.00E-06 M): 32.4512% and 31.601% and 30.272% | Cell Viability (%) (Mino; 6.25E-07 M): 49.0909% and 46.392% and 45.7071% | Cell Viability (%) (Mino; 7.81E-08 M): 89.7818% and 79.7053% and 78.5229% | IC50 (Mino; Mino, triplicates): 400 nM | IC50 (Rec-1; Rec-1, triplicates): 4100 nM | Cell Viability (%) (Rec-1; 1.25E-06 M): 86.4761% and 87.1335% and 88.5619% | Cell Viability (%) (Rec-1; 1.56E-07 M): 110.78% and 108.392% and 108.404% | Cell Viability (%) (Rec-1; 2.50E-06 M): 70.381% and 67.6766% and 67.9066% | Cell Viability (%) (Rec-1; 3.13E-07 M): 100.052% and 101.66% and 95.2827% | Cell Viability (%) (Rec-1; 5.00E-06 M): 39.6222% and 42.2011% and 40.0645% | Cell Viability (%) (Rec-1; 6.25E-07 M): 96.6812% and 94.3055% and 92.2914% | Cell Viability (%) (Rec-1; 7.81E-08 M): 102.045% and 105.031% and 106.253% | NanoBRET(%) (NanoLuc-CRBN fusion; 1.00E-05 M, triplicates): 21.6334% and 26.3618% | NanoBRET(%) (NanoLuc-CRBN fusion; 1.60E-08 M, triplicates): 89.0253% and 93.1823% and 91.5749% | NanoBRET(%) (NanoLuc-CRBN fusion; 3.20E-09 M, triplicates): 81.4353% and 98.6889% | NanoBRET(%) (NanoLuc-CRBN fusion; 4.00E-07 M, triplicates): 23.5104% and 43.7578% and 36.9762% | NanoBRET(%) (NanoLuc-CRBN fusion; 8.00E-08 M, triplicates): 72.3946% and 83.8988% and 65.1002% | IC50 (NanoLuc-CRBN fusion; HEK-293 cells, CRBN tracer 0.5 µM, triplicates, read-out: CRBN target engagement IC50,TE): 250 nM | K′P,D (relative intracellular accumulation coefficient) (NanoLuc-CRBN fusion; Kd (CRBN)/IC50,TE (CRBN)): 16.8 | Fluorescence Intensity ([1]; CRBN 0 μM): 4127.8 and 4128.8 and 3844.8 | Fluorescence Intensity ([1]; CRBN 0.734375 μM): 3220.8 and 3187.8 and 3673.8 | Fluorescence Intensity ([1]; CRBN 1.46875 μM): 3204.8 and 3148.8 and 2908.8 | Fluorescence Intensity ([1]; CRBN 2.9375 μM): 2864.8 and 2662.8 and 2860.8 | Fluorescence Intensity ([1]; CRBN 5.875 μM): 2528.8 and 2598.8 and 2686.8 | Fluorescence Intensity ([1]; CRBN 11.75 μM): 1735.8 and 1776.8 and 2083.8 | Fluorescence Intensity ([1]; CRBN 23.5 μM): 1563.8 and 1722.8 and 1455.8 | Kd ([1]; truncated Cereblon protein, fluorescence quenching, triplicates): 4200 nM | IC50 (BTK; AssayQuant BTK assay kit, 2.5 nM BTK, 1 mM ATP, duplicates, read-out: BTK inhibition IC50): 1.8 nM | activity at 2.56 pM (BTK; Supplementary Figure 5, drug concentration 2.56 pM, replicates, read-out: Inhibition(%)): 87.3% | activity at 12.8 pM (BTK; Supplementary Figure 5, drug concentration 12.8 pM, replicates, read-out: Inhibition(%)): 93.2% | activity at 64 pM (BTK; Supplementary Figure 5, drug concentration 64 pM, replicates, read-out: Inhibition(%)): 89.4% | activity at 0.00032 µM (BTK; Supplementary Figure 5, drug concentration 320 pM, replicates, read-out: Inhibition(%)): 87.3% | activity at 0.0016 µM (BTK; Supplementary Figure 5, drug concentration 1600 pM, replicates, read-out: Inhibition(%)): 55% | activity at 0.008 µM (BTK; Supplementary Figure 5, drug concentration 8000 pM, replicates, read-out: Inhibition(%)): 8.41% | activity at 0.04 µM (BTK; Supplementary Figure 5, drug concentration 40000 pM, replicates, read-out: Inhibition(%)): 3.46% | activity at 0.2 µM (BTK; Supplementary Figure 5, drug concentration 200000 pM, replicates, read-out: Inhibition(%)): 2.91% | activity at 1 µM (BTK; Supplementary Figure 5, drug concentration 1000000 pM, replicates, read-out: Inhibition(%)): 2.99%

— article PMC7450057, “Enhancing intracellular accumulation and target engagement of PROTACs with reversible covalent chemistry” (Nature Communications, 2020)
